Results: BigSolDB 2.1

SMILES: Nc1cccc(Cl)c1C(=O)O
- solubility (mole fraction) (in NMP, 278.15 K): 0.0744
- solubility (mole fraction) (in NMP, 283.15 K): 0.0797
- solubility (mole fraction) (in NMP, 288.15 K): 0.0873
- solubility (mole fraction) (in NMP, 293.15 K): 0.0958
- solubility (mole fraction) (in NMP, 298.15 K): 0.106
- solubility (mole fraction) (in NMP, 303.15 K): 0.119
- solubility (mole fraction) (in NMP, 308.15 K): 0.135
- solubility (mole fraction) (in NMP, 313.15 K): 0.155
- solubility (mole fraction) (in NMP, 318.15 K): 0.178
- solubility (mole fraction) (in NMP, 323.15 K): 0.204
- solubility (mole fraction) (in acetonitrile, 278.15 K): 0.00746
- solubility (mole fraction) (in acetonitrile, 283.15 K): 0.00991
- solubility (mole fraction) (in acetonitrile, 288.15 K): 0.0129
- solubility (mole fraction) (in acetonitrile, 293.15 K): 0.0166
- solubility (mole fraction) (in acetonitrile, 298.15 K): 0.0208
- solubility (mole fraction) (in acetonitrile, 303.15 K): 0.0259
- solubility (mole fraction) (in acetonitrile, 308.15 K): 0.0313
- solubility (mole fraction) (in acetonitrile, 313.15 K): 0.0377
- solubility (mole fraction) (in acetonitrile, 318.15 K): 0.045
- solubility (mole fraction) (in acetonitrile, 323.15 K): 0.0541
- solubility (mole fraction) (in cyclohexane, 283.15 K): 4.1e-05
- solubility (mole fraction) (in cyclohexane, 288.15 K): 6e-05
- solubility (mole fraction) (in cyclohexane, 293.15 K): 8.7e-05
- solubility (mole fraction) (in cyclohexane, 298.15 K): 0.000115
- solubility (mole fraction) (in cyclohexane, 303.15 K): 0.000155
- solubility (mole fraction) (in cyclohexane, 308.15 K): 0.000205
- solubility (mole fraction) (in cyclohexane, 313.15 K): 0.000269
- solubility (mole fraction) (in cyclohexane, 318.15 K): 0.000344
- solubility (mole fraction) (in cyclohexane, 323.15 K): 0.000445
- solubility (mole fraction) (in ethanol, 278.15 K): 0.0284
- solubility (mole fraction) (in ethanol, 283.15 K): 0.0346
- solubility (mole fraction) (in ethanol, 288.15 K): 0.0408
- solubility (mole fraction) (in ethanol, 293.15 K): 0.049
- solubility (mole fraction) (in ethanol, 298.15 K): 0.0584
- solubility (mole fraction) (in ethanol, 303.15 K): 0.0702
- solubility (mole fraction) (in ethanol, 308.15 K): 0.0831
- solubility (mole fraction) (in ethanol, 313.15 K): 0.1
- solubility (mole fraction) (in ethanol, 318.15 K): 0.119
- solubility (mole fraction) (in ethanol, 323.15 K): 0.141
- solubility (mole fraction) (in ethyl acetate, 278.15 K): 0.0257
- solubility (mole fraction) (in ethyl acetate, 283.15 K): 0.0303
- solubility (mole fraction) (in ethyl acetate, 288.15 K): 0.036
- solubility (mole fraction) (in ethyl acetate, 293.15 K): 0.0423
- solubility (mole fraction) (in ethyl acetate, 298.15 K): 0.051
- solubility (mole fraction) (in ethyl acetate, 303.15 K): 0.0612
- solubility (mole fraction) (in ethyl acetate, 308.15 K): 0.0731
- solubility (mole fraction) (in ethyl acetate, 313.15 K): 0.0867
- solubility (mole fraction) (in ethyl acetate, 318.15 K): 0.103
- solubility (mole fraction) (in ethyl acetate, 323.15 K): 0.122
- solubility (mole fraction) (in ethylene glycol, 278.15 K): 0.0133
- solubility (mole fraction) (in ethylene glycol, 283.15 K): 0.0175
- solubility (mole fraction) (in ethylene glycol, 288.15 K): 0.0225
- solubility (mole fraction) (in ethylene glycol, 293.15 K): 0.0283
- solubility (mole fraction) (in ethylene glycol, 298.15 K): 0.0349
- solubility (mole fraction) (in ethylene glycol, 303.15 K): 0.0423
- solubility (mole fraction) (in ethylene glycol, 308.15 K): 0.0505
- solubility (mole fraction) (in ethylene glycol, 313.15 K): 0.0601
- solubility (mole fraction) (in ethylene glycol, 318.15 K): 0.071
- solubility (mole fraction) (in ethylene glycol, 323.15 K): 0.0848
- solubility (mole fraction) (in isobutanol, 278.15 K): 0.0106
- solubility (mole fraction) (in isobutanol, 283.15 K): 0.0145
- solubility (mole fraction) (in isobutanol, 288.15 K): 0.0189
- solubility (mole fraction) (in isobutanol, 293.15 K): 0.0244
- solubility (mole fraction) (in isobutanol, 298.15 K): 0.0308
- solubility (mole fraction) (in isobutanol, 303.15 K): 0.0385
- solubility (mole fraction) (in isobutanol, 308.15 K): 0.047
- solubility (mole fraction) (in isobutanol, 313.15 K): 0.057
- solubility (mole fraction) (in isobutanol, 318.15 K): 0.0677
- solubility (mole fraction) (in isobutanol, 323.15 K): 0.0809
- solubility (mole fraction) (in isopropanol, 278.15 K): 0.0195
- solubility (mole fraction) (in isopropanol, 283.15 K): 0.0231
- solubility (mole fraction) (in isopropanol, 288.15 K): 0.0276
- solubility (mole fraction) (in isopropanol, 293.15 K): 0.0332
- solubility (mole fraction) (in isopropanol, 298.15 K): 0.0399
- solubility (mole fraction) (in isopropanol, 303.15 K): 0.0479
- solubility (mole fraction) (in isopropanol, 308.15 K): 0.0571
- solubility (mole fraction) (in isopropanol, 313.15 K): 0.0676
- solubility (mole fraction) (in isopropanol, 318.15 K): 0.0819
- solubility (mole fraction) (in isopropanol, 323.15 K): 0.0982
- solubility (mole fraction) (in n-butanol, 278.15 K): 0.0172
- solubility (mole fraction) (in n-butanol, 283.15 K): 0.0208
- solubility (mole fraction) (in n-butanol, 288.15 K): 0.0248
- solubility (mole fraction) (in n-butanol, 293.15 K): 0.03
- solubility (mole fraction) (in n-butanol, 298.15 K): 0.0365
- solubility (mole fraction) (in n-butanol, 303.15 K): 0.0439
- solubility (mole fraction) (in n-butanol, 308.15 K): 0.053
- solubility (mole fraction) (in n-butanol, 313.15 K): 0.0642
- solubility (mole fraction) (in n-butanol, 318.15 K): 0.0786
- solubility (mole fraction) (in n-butanol, 323.15 K): 0.0958
- solubility (mole fraction) (in n-heptanol, 278.15 K): 0.00987
- solubility (mole fraction) (in n-heptanol, 283.15 K): 0.0135
- solubility (mole fraction) (in n-heptanol, 288.15 K): 0.0177
- solubility (mole fraction) (in n-heptanol, 293.15 K): 0.0225
- solubility (mole fraction) (in n-heptanol, 298.15 K): 0.0276
- solubility (mole fraction) (in n-heptanol, 303.15 K): 0.0338
- solubility (mole fraction) (in n-heptanol, 308.15 K): 0.0414
- solubility (mole fraction) (in n-heptanol, 313.15 K): 0.0507
- solubility (mole fraction) (in n-heptanol, 318.15 K): 0.0625
- solubility (mole fraction) (in n-heptanol, 323.15 K): 0.0776
- solubility (mole fraction) (in n-octanol, 278.15 K): 0.00855
- solubility (mole fraction) (in n-octanol, 283.15 K): 0.0118
- solubility (mole fraction) (in n-octanol, 288.15 K): 0.0154
- solubility (mole fraction) (in n-octanol, 293.15 K): 0.0194
- solubility (mole fraction) (in n-octanol, 298.15 K): 0.0241
- solubility (mole fraction) (in n-octanol, 303.15 K): 0.0301
- solubility (mole fraction) (in n-octanol, 308.15 K): 0.0376
- solubility (mole fraction) (in n-octanol, 313.15 K): 0.0476
- solubility (mole fraction) (in n-octanol, 318.15 K): 0.0606
- solubility (mole fraction) (in n-octanol, 323.15 K): 0.0753
- solubility (mole fraction) (in n-propanol, 278.15 K): 0.0203
- solubility (mole fraction) (in n-propanol, 283.15 K): 0.0248
- solubility (mole fraction) (in n-propanol, 288.15 K): 0.0299
- solubility (mole fraction) (in n-propanol, 293.15 K): 0.0353
- solubility (mole fraction) (in n-propanol, 298.15 K): 0.0416
- solubility (mole fraction) (in n-propanol, 303.15 K): 0.0498
- solubility (mole fraction) (in n-propanol, 308.15 K): 0.0592
- solubility (mole fraction) (in n-propanol, 313.15 K): 0.0718
- solubility (mole fraction) (in n-propanol, 318.15 K): 0.0859
- solubility (mole fraction) (in n-propanol, 323.15 K): 0.103
- solubility (mole fraction) (in toluene, 278.15 K): 0.00446
- solubility (mole fraction) (in toluene, 283.15 K): 0.00515
- solubility (mole fraction) (in toluene, 288.15 K): 0.00616
- solubility (mole fraction) (in toluene, 293.15 K): 0.0075
- solubility (mole fraction) (in toluene, 298.15 K): 0.00924
- solubility (mole fraction) (in toluene, 303.15 K): 0.0112
- solubility (mole fraction) (in toluene, 308.15 K): 0.0133
- solubility (mole fraction) (in toluene, 313.15 K): 0.0156
- solubility (mole fraction) (in toluene, 318.15 K): 0.0179
- solubility (mole fraction) (in toluene, 323.15 K): 0.0207
- solubility (mole fraction) (in water, 278.15 K): 0.000571
- solubility (mole fraction) (in water, 283.15 K): 0.000674
- solubility (mole fraction) (in water, 288.15 K): 0.000801
- solubility (mole fraction) (in water, 293.15 K): 0.000965
- solubility (mole fraction) (in water, 298.15 K): 0.00116
- solubility (mole fraction) (in water, 303.15 K): 0.0014
- solubility (mole fraction) (in water, 308.15 K): 0.00169
- solubility (mole fraction) (in water, 313.15 K): 0.00203
- solubility (mole fraction) (in water, 318.15 K): 0.00247
- solubility (mole fraction) (in water, 323.15 K): 0.00297
